Laboratory results taken from paper PMC4195943, “A novel small-molecule MRCK inhibitor blocks cancer cell invasion” (Cell Communication and Signaling : CCS, 2014).

How the values were obtained:
Caco-2 permeability = type: in vitro ADME; conditions: human
[1] = tested on: MLC phosphorylation in SCC12 cells; test: MLC phosphorylation in SCC12 squamous cell carcinoma cells (quantitative western blot); type: cell-based, human
Experimental: All results are shown as mean ± standard error of n = 3 independent replicates. […] Readings were compared to the Alamar Blue metabolism in DMSO treated cells that were used as the viability standard of 100% for each replicate experiment. […] (F) Number of invading cells was determined in 5 random fields for each condition for each separate replicate experiment. All results are shown as mean ± standard error of n ≥ 3 independent replicates.
Cell lysates were prepared as described previously. For pMLC western blots, cells were lysed in a 1% (w/v) SDS, 50 mM Tris pH 7.5 buffer and lysates were passed through QIAshredder columns (Qiagen, 79654). Alternatively, for pMLC western blots lysates were prepared in lysis buffer with 50 mM Tris (pH7.5), 0.5% (w/v) SDS, supplemented with Complete Protease and PhosSTOP inhibitors (Roche). Whole cell lysates were separated by SDS-PAGE, transferred to Protran nitrocellulose membranes (Whatman), probed with primary antibodies and appropriate IR dye-conjugated secondary antibodies. Blots were visualized using a Licor Odyssey according to manufacturer’s instructions. […]

Compound | Papp (Caco-2 permeability) [×10⁻⁶ cm/s] | phosphorylated MLC at higher doses in SCC12 cells [1]
O=C(Nc1cn[nH]c1-c1ccccn1)c1nn(C2CCNCC2)cc1Cl [BDP5290, 4-chloro-1-(4-piperidyl)-N-[5-(2-pyridyl)-1H-pyrazol-4-yl]pyrazole-3-carboxamide] | 0.171 | 
C[C@@H](N)[C@H]1CC[C@H](C(=O)Nc2ccncc2)CC1 [Y27632, reference compound] |  | residual phosphorylated MLC
